Assay results from the METLIN SMRT retention time set (Domingo-Almenara et al. 2019).

Experiment: gradient 5% acetonitrile 3 min, to 50% in 2 min, to 85% in 15 min, held 3 min, 100 µL/min
Details: column: Zorbax Extend-C18 2.1 x 50 mm; eluents: water / acetonitrile, 0.1% formic acid
Procedure, shortened: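 Over 3 months, pure standards in mixtures of ~100 molecules were run by HPLC coupled to a quadrupole time-of-flight mass spectrometer in positive and negative ionization mode. The column was a Zorbax Extend-C18 (2.1 × 50 mm, 1.8 μm) at 100 μL/min, eluted with water and acetonitrile each holding 0.1% formic acid, with 40 μL dead and 900 μL dwell volumes. Retention time was determined from adduct peaks chosen by software and checked manually.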

| Compound | RP-LC retention time [s] |
| --- | --- |
| Cc1c(Cl)cccc1S(=O)(=O)N1CCc2c(c(-c3nnc(-c4ccc(F)cc4)o3)nn2C)C1 | 1090 |
| O=C(c1ccc(-c2ccc3c(c2)CCN3C(=O)Nc2ccc3c(c2)OCCO3)cc1)N1CCOCC1 | 804 |
| CC(C)C(=O)Nc1cc2c(cc1S(=O)(=O)c1ccccc1)n(C)c(=O)n2C | 772 |
| Cc1ccc(Cn2c(=O)n(CCNC(=O)c3ccsc3)c3ncccc32)cc1 | 794 |
| CCc1cc(-c2csc(S(=O)(=O)Nc3ccc(C)c(C)c3)c2)on1 | 1050 |
| COc1ccc(NS(=O)(=O)c2cc(-c3[nH]ncc3C(=O)N(C)C)oc2C)cc1F | 672 |
| COc1cccc(-c2noc(CN3C(=O)COc4ccc(C(C)(C)C)cc43)n2)c1 | 1250 |
| Cc1ccc(-n2nnnc2CNC(=O)c2cc(Br)ccc2Cl)cc1 | 835 |
| O=C(C1CCN(c2cc(N3CCCCC3)ncn2)CC1)N1CCN(c2ccccc2)CC1 | 724 |
| Cc1ccc(CNC(=O)COc2cc(C)nc(N3CCN(c4ccccc4)CC3)n2)cc1 | 922 |
| CCCCOc1ccc(C(=O)Nc2cc(C)no2)cc1 | 908 |
| O=C(C1=CN(c2ccc(Cl)cc2)c2cc(F)ccc2S1(=O)=O)N1CCOCC1 | 830 |
| COc1cc(NC(=O)N2CCC(N3CCN(Cc4ccc(F)cc4)C(=O)C3=O)CC2)cc(OC)c1 | 724 |
| Cc1ccc(S(=O)(=O)N2CCC(CCC(=O)N3CCN(C)CC3)CC2)cc1 | 627 |
| Cn1c(C2CCN(C(=O)c3ccsc3)C2)nc2cccnc21 (centres undefined) | 606 |
| O=C(CSc1ccc(N2CCCC(C(=O)NC3CC3)C2)nn1)Nc1ccc2c(c1)CCC2 (centres undefined) | 691 |
| COc1ccc(CC(=O)Nc2nnc(SCc3nnc(-c4ccccc4)o3)s2)cc1 | 848 |
| Cc1cc2c(c(=O)n(-c3ccccc3)c(=O)n2CC(=O)Nc2ccc(F)c(Cl)c2)n1C | 902 |
| COc1ccc(-c2cc(N3CCN(C(=O)COc4ccc(C)cc4OC)CC3)ncn2)cc1 | 608 |
| Cc1ccc(S(=O)(=O)N2CCCC(c3nc(-c4cccc(-c5ccnn5C)c4)no3)C2)cc1 (centres undefined) | 1140 |
| Cc1cc(C)c(C(=O)N2CCC(CC(=O)NCc3ccc(F)cc3)CC2)[nH]1 | 759 |
| O=C(Cc1ccsc1)N1CCCC1(CO)Cc1ccccc1 (centres undefined) | 805 |
| CCOC(=O)CCNC(=O)N1CCCN(C)c2ccccc21 | 623 |

| Compound | RP-LC retention time [s] |
| --- | --- |
| CCOCC(=O)Nc1c(C)nc2ccc(Cl)cn2c1=O | 583 |
| Cc1cc(NC(=O)Cn2nc(C(=O)N3CCCC3)c3ccccc32)ccc1Br | 948 |
| CCC(C)(C)c1ccc(Oc2cccc(C(=O)O)c2)cc1 | 1260 |
| CCCN(CC1CCOC1)C(=O)Nc1ccc(C)c(C)c1 (centres undefined) | 869 |
| CSc1ccc(-c2nc3ncccn3c2Nc2cccc(Cl)c2C)cc1 | 968 |
| CC(C)N(C(=O)Cn1c(CN(C)C(=O)c2ccco2)nc2ccccc21)c1ccccc1 | 725 |
| NC(=O)C1(c2cccc(F)c2)CC1 | 694 |
| CCCCn1cc(S(=O)(=O)NCc2cccc(C)c2)c2cccnc21 | 1000 |
| Cc1cccc(-n2ncc(C(N)=O)c2-n2cccc2)c1 | 775 |
| Cc1sc2ncnc(N3CCCC(C)C3)c2c1C(=O)Nc1cc(F)ccc1F (centres undefined) | 1220 |
| Cc1ccsc1CN1CCc2nc(N3CCN(c4ccccc4F)CC3)ncc2C1 | 780 |
| CCc1nc(N)n(CC(=O)Nc2ccc(C)cc2C)c(=O)c1C | 659 |
| Cc1ccc(N2CCN(C(=O)C3CCCN(c4nccc5sc(C)cc45)C3)CC2)cc1 (centres undefined) | 747 |
| CCn1cc(-c2nc(C(=O)NCc3ccc(F)c(Cl)c3)cs2)c2cccnc21 | 1050 |
| CC(C)n1cnc2cc(CNC(=O)C3CCCCC3)ccc21 | 611 |
| CCc1cc(C(=O)Nc2cc(F)ccc2C)nc2ccnn12 | 1090 |
| CCOc1cc(C(=O)NC2CCN(c3cc(-c4cccs4)[nH]n3)C2)cc(OCC)c1OCC (centres undefined) | 839 |
| Cc1nc(C2CC23CCN(S(=O)(=O)c2c(C)c(C)cc(C)c2C)CC3)no1 (centres undefined) | 1170 |
| CC(C)N1CCn2cc(S(=O)(=O)NCc3ccc(F)cc3Cl)cc2C1=O | 788 |
| CCOC(=O)c1ccccc1NC(=O)CN1CCC(Cn2cnc3ccccc32)CC1 | 556 |
| CNC(=O)C1CCCN(c2nc3ncn(CC(=O)Nc4ccc(F)cc4F)c(=O)c3s2)C1 (centres undefined) | 635 |
| Cc1ccc(Cn2c(N3CCCC(C(=O)NC4CCCCC4)C3)nc3ccsc3c2=O)cc1 (centres undefined) | 1020 |
| O=C(NCc1ccco1)C(=O)NCC1OCCN1C(=O)c1ccc(Cl)cc1 (centres undefined) | 705 |

| Compound | RP-LC retention time [s] |
| --- | --- |
| COC(=O)c1ccc2c(=O)n(-c3ccc(C)cc3)c(N3CCCCCC3)nc2c1 | 1340 |
| COc1ccc(S(=O)(=O)N2CC(F)(F)C[C@H]2c2nnc(C)o2)cc1 | 788 |
| CCCNC(=O)c1ccc(S(N)(=O)=O)cc1 | 653 |
| COc1cccc(NC(=O)C2CCc3nc(N4CCCCC4)ncc3C2)c1 (centres undefined) | 782 |
| Cc1sc2ccn(CC(C)C)c(=O)c2c1C(=O)NCc1ccc(F)cc1F | 983 |
| O=C(Nc1nc(-c2ccccc2)ns1)c1ccccc1Cl | 989 |
| Cc1nn2c(CNC(=O)c3ccccc3)c(-c3ccccc3)nc2s1 | 810 |
| COc1ccccc1N1CCN(S(=O)(=O)c2cc(-c3nnc(C4CCC4)o3)co2)CC1 | 1020 |
| O=C(CSc1nnc2c3sc(N4CCCC4)nc3ncn12)Nc1ccc(F)c(Cl)c1 | 890 |
| CCN(CC)C(=O)N1CC(n2cc(C(=O)N3CCCC3)nn2)C1 | 646 |
| Cc1ccc(C)c(S(=O)(=O)NCC2CN(C)CC23CCCCC3)c1 (centres undefined) | 704 |
| CC(=O)NCc1csc(C2CCCN(C(=O)COc3ccccc3)C2)n1 (centres undefined) | 670 |
| COc1ccc(Cl)cc1NC(=O)c1sc(-c2cn(C)c3ncccc23)nc1C | 1220 |
| O=C(Nc1ccc2c(c1)OCCO2)C1CCCN(c2nccnc2Sc2ccccc2)C1 (centres undefined) | 1030 |
| O=C(Nc1ccccc1)C1CC(=O)N(c2n[nH]c3cccc(F)c23)C1 (centres undefined) | 730 |
| COc1ccc(CNC(=O)CCc2nc3ccc(C)cc3c(=O)n2C)cc1 | 748 |
| Cn1nc(-c2nc(Cc3ccccc3)no2)c2c1CCN(C(=O)C(C)(C)C)C2 | 937 |
| CC(C)C(=O)Nc1ccc2nc(N3CCN(Cc4ccccc4F)CC3)cc(C(=O)O)c2c1 | 585 |
| CCN1CCCn2cc(S(=O)(=O)Nc3cc(F)ccc3C)cc2C1=O | 729 |
| COc1ccccc1N1CCN(c2cc(SCC(=O)Nc3cc(C)ccc3C)ncn2)CC1 | 1070 |
| O=C(NCCCc1ccccc1)c1nnc(-c2ccc(S(=O)(=O)N3CCOCC3)cc2)o1 | 911 |
| COc1cc(NC(=O)N2CCC(n3c(C(F)(F)F)nc4cccnc43)CC2)cc(OC)c1 | 895 |
| CC(C)CNC(=O)CCn1c(=O)c2ccccc2n2c(=O)n(Cc3ccc(F)cc3)nc12 | 870 |

| Compound | RP-LC retention time [s] |
| --- | --- |
| CCc1cccc(NC(=O)Cn2ccc3sccc3c2=O)c1 | 800 |
| O=C(c1ccc(Br)o1)N1CCN(Cc2nnnn2-c2ccc(F)cc2)CC1 | 776 |
| O=S(=O)(c1cccc(Cl)c1)N1CCC(c2noc(-c3ccccc3)n2)CC1 | 1160 |
| COc1ccc(CCC(=O)Nc2nc(-c3cccc(Br)c3)cs2)cc1 | 1150 |
| COc1ccc(Cl)cc1S(=O)(=O)N1CCc2nc(-c3ccc(F)cc3)ncc2C1 | 1130 |
| COCCNC(=O)N1CCCn2nc(-c3ccc(OC)cc3)cc2C1 | 660 |
| Cc1cnc(C(=O)N2CCCC2c2nc(CCOCC3CC3)no2)cn1 (centres undefined) | 733 |
| O=C(CN1C(=O)C(C(=O)N2CCCCCC2)Sc2ccccc21)NC1CCCCC1 (centres undefined) | 1090 |
| CC(=O)Nc1ccc(NC(=O)COc2cc(C)nc(-c3ccc(C(F)(F)F)cc3)n2)cc1 | 887 |
| O=S(=O)(Nc1ccccc1)c1cccnc1Nc1ccc(F)cc1 | 1020 |
| CN(C)C(=O)c1n[nH]c2c1CN(C(=O)c1ccc(F)c(F)c1)CC2 | 634 |
| CCOC(=O)c1cc([N+](=O)[O-])sc1NC(=O)c1c(-c2ccccc2Cl)noc1C | 1220 |
| O=C(CCCN1C(=O)c2cccc3cccc(c23)C1=O)NC1CCCCC1 | 812 |
| COc1cc(-c2nc3sc4c(c3c(=O)o2)CCC4)cc(OC)c1OC | 1090 |
| COc1cccc(-c2nnc(Cc3nc(-c4ccccc4Cl)no3)o2)c1 | 1020 |
| CNC(=O)c1cccc(Nc2c(-c3ccccc3)nc3cnccn23)c1 | 645 |
| CN(C(=O)Nc1ccccc1)C1CCc2nn(CC3CC3)c(=O)n2CC1 (centres undefined) | 681 |
| CCCn1cc(S(=O)(=O)NCc2ccccc2OC)c2cccnc21 | 890 |
| CCc1cccc(NC(=O)C2CCN(S(=O)(=O)c3cc(C(=O)N4CCCC4)cs3)CC2)c1 | 892 |
| Cc1ccc(C)c(CNC(=O)Cn2c(=O)c3nnc(C)n3c3ncccc32)c1 | 712 |
